The source of these data is PMC12369479 (Journal of Experimental Botany, 2025).

Read-outs that look alike come from different tables or passages of the source.

Assay [1] deals with T1, ZmADK2 (Zea mays, UniProt B4FFH8, T4S). In words: Binding affinity by microscale thermophoresis (MST). The settings on record: MST, 50 mM HEPES pH 7.5, 1 mM MgCl2, first or only binding event. As for the experimental part: (§1) The microscale thermophoresis (MST) method was used to determine the binding affinity of various ribosides for ZmADK2 and PpADK1. Proteins were fluorescently labeled with RED-tris-NTA dye (www.nanotemper-technologies.com) using a 1:1 dye/protein molar ratio. The labeled protein was adjusted to 100–300 nM in 50 mM HEPES buffer pH 7.5, 1 mM MgCl2, and 0.2% Tween. Measurements were performed in premium capillaries on a Monolith NT.115 instrument at 30 °C with 5 s/30 s/5 s laser off/on/off times, respectively, with continuous sample fluorescence recording. Thermal stability was measured by nano-differential scanning fluorimetry on a Prometheus NT.48 instrument (www.nanotemper-technologies.com) in various buffers covering a pH (7.0–9.5) and temperature range (25–95 °C), with a heating rate of 1 °C min^–1, and using NT melting control software. Protein unfolding was measured by detecting the temperature-induced change in tryptophan fluorescence intensity at emission wavelengths of 330±5 nm and 350±5 nm. The melting temperature (Tm) was deduced from the maximum of the first derivative of the fluorescence ratios F350/F330.
In general terms: In MST a laser heats a spot of the sample, and binding alters the fluorescence response.

The target in assay [2] is ZmADK3 E225A variant (Zea mays, UniProt A0A1D6E5Z5, E225A). Nature of the assay: Binding affinity by MST. The procedure:
(§2) All ZmADK3 mutants were cloned by 30 cycle PCRs using tail-to-tail oriented phosphorylated primers, with the mutation being located at the 5′ end of one of the primers. The following mutants were cloned using the primers given in Supplementary Table S1: D19A, R132A, N222A, E225A, N295A, and D299A. The products were treated with DpnI restriction enzyme, gel purified, and ligated using T4 DNA ligase (www.thermofisher.com). Clones were transformed into T7 express I^qE. coli competent cells.
as §1

Assay [3] deals with ZmADK3 D299A variant (Zea mays, UniProt A0A1D6E5Z5, D299A). Nature of the assay: Binding affinity by MST. Particulars: D299A; MST; read-out: KD ATP. As for the experimental part:
as §2, §1

For assay [4], the target named is ZmADK3 D19A variant (Zea mays, UniProt A0A1D6E5Z5, D19A). In words: Binding affinity by MST. The settings on record: D19A; MST; read-out: KD ATP. The procedure:
as §2, §1

Assay [5] addresses ZmADK3 N222A variant (Zea mays, UniProt A0A1D6E5Z5, N222A). Nature of the assay: Binding affinity by MST. As for the experimental part:
as §2, §1

Assay [6] concerns the target ZmADK3 N295A variant (Zea mays, UniProt A0A1D6E5Z5, N295A). In words: Binding affinity by MST. Particulars: N295A; MST; read-out: KD ATP. As for the experimental part: as §2, §1
Assay [7] addresses ZmADK3 R132A variant (Zea mays, UniProt A0A1D6E5Z5, R132A). In words: Binding affinity by MST. The settings on record: R132A; MST; read-out: KD ATP. The procedure:
as §2, §1

The target in assay [8] is WT ZmADK3 (Zea mays, UniProt A0A1D6E5Z5). In words: Binding affinity by MST. The settings on record: read-out: KD ATP.
The target of assay [9] is T2, PpADK1 (Physcomitrium patens, UniProt O49923).
T2 construct: made in house; host or cells: E. coli T7 Express Iq
Nature of the assay: Binding affinity by microscale thermophoresis (MST). Also on record: species or system Physcomitrella patens. As for the experimental part:
as §1

Assay [10] relates to five plant ADKs. In words: Thermal stability by nanoDSF. Also on record: species or system Zea mays, Physcomitrella patens. The settings on record: all isoforms, ATP complexes at 4 mM. The procedure: as §1
Supplementary Fig. S1. Thermal stability, molecular and kinetic properties of ZmADK2. (A)
Thermal stability of five plant ADKs measured by nanoDSF. The curves for apoforms (in 150 mM
HEPES pH 7.2, 100 mM NaCl, 10 mM MgCl2) and ATP complexes at 4 mM concentrations are shown. […]

Assay [11] concerns plant ADKs from lupin and Arabidopsis. Also on record: method as in Guranowski, 1979; Moffatt et al., 2000. The settings on record: ref Guranowski, 1979, Moffatt et al., 2000, read-out: Km for ATP; cited from earlier work.
In assay [12] the test system is rabbit ADK. Details: method as in Miller et al., 1979a. The settings on record: ref Miller et al., 1979a; cited from earlier work.
The target in assay [13] is T1, ZmADK2. Nature of the assay: ADK activity, coupled reaction with PK and LDH. The format is biochemical. The settings on record: pH 7.5. As for the experimental part:
(§3) Substrate analogs were purchased from Sigma-Aldrich (www.sigmaaldrich.com). The ADK activity was measured spectrophotometrically on an Agilent 8453 UV-Vis spectrophotometer (www.agilent.com) at 30 °C using a coupled reaction with pyruvate kinase (PK) and lactate dehydrogenase (LDH) (www.sigmaaldrich.com) ([Blondin et al., 1994]). In this assay, PK converts ADP produced by ADK and phosphoenolpyruvate (PEP) to pyruvate. Subsequently, LDH then converts pyruvate to lactate using the coenzyme NADH, with the conversion monitored at 340 nm. The reaction was conducted in 50 mM Tris–HCl buffer at pH 7.5, containing 50 mM KCl, 6 mM MgCl2, 300 µM PEP, 200 µM NADH, 10 mM ATP, 2 U of PK, and 2.5 U of LDH, using various nucleoside substrates. Kinetic constants were determined using GraphPad Prism 8.0 software (www.graphpad.com). Each measurement was performed six times using repetitive purified enzymes. The activities of all five ADKs were also measured by HPLC ([Moffatt et al., 1991]). The reaction mixture comprised 50 mM Tris–HCl pH 7.5, 5 mM MgCl2, 0.5 mM DTT, 30 mM NaF, 5 mM ATP, 40 µM substrate, and 2–150 ng of purified ADK, depending on the isoform. The reaction was incubated at 30 °C for up to 1 h. […] Similarly, the conversion of cytokinin ribosides to monophosphates was followed on a LiChrosphere 60 RP-Select B (5 µm) LiChroCART column 125-4 column equilibrated with 10 mM triethylamine at pH 5.4 plus 10% methanol, and stepwise eluted with 100% methanol.

For assay [14], the target named is PpADK2 (Physcomitrium patens, UniProt A9RF27). In words: ADK activity, coupled reaction with PK and LDH. The settings on record: 10 mM ATP, pH 7.5, 30 °C. The procedure: as §3
Assay [15] has as its target ZmADK1 (Zea mays, UniProt K7UH13). Nature of the assay: ADK activity, coupled reaction with PK and LDH. Particulars: 10 mM ATP, pH 7.5, 30 °C. As for the experimental part:
as §3

Assay [16] has as its target T2, PpADK1. In words: ADK activity, coupled reaction with PK and LDH. The class given is biochemical, Physcomitrella patens. The settings on record: 100 µM substrate, 10 mM ATP, pH 7.5, 30 °C. As for the experimental part: as §3
Assay [17] relates to all five ADKs. Nature of the assay: ADK kinetics, coupled reaction (summary for all isoforms). The class given is biochemical, Zea mays, Physcomitrella patens. The settings on record: range over all five ADKs. As for the experimental part: Substrate analogs were purchased from Sigma-Aldrich (www.sigmaaldrich.com). The ADK activity was measured spectrophotometrically on an Agilent 8453 UV-Vis spectrophotometer (www.agilent.com) at 30 °C using a coupled reaction with pyruvate kinase (PK) and lactate dehydrogenase (LDH) (www.sigmaaldrich.com) ([Blondin et al., 1994]). In this assay, PK converts ADP produced by ADK and phosphoenolpyruvate (PEP) to pyruvate. Subsequently, LDH then converts pyruvate to lactate using the coenzyme NADH, with the conversion monitored at 340 nm. The reaction was conducted in 50 mM Tris–HCl buffer at pH 7.5, containing 50 mM KCl, 6 mM MgCl2, 300 µM PEP, 200 µM NADH, 10 mM ATP, 2 U of PK, and 2.5 U of LDH, using various nucleoside substrates. Kinetic constants were determined using GraphPad Prism 8.0 software (www.graphpad.com). Each measurement was performed six times using repetitive purified enzymes. The activities of all five ADKs were also measured by HPLC ([Moffatt et al., 1991]). The reaction mixture comprised 50 mM Tris–HCl pH 7.5, 5 mM MgCl2, 0.5 mM DTT, 30 mM NaF, 5 mM ATP, 40 µM substrate, and 2–150 ng of purified ADK, depending on the isoform. The reaction was incubated at 30 °C for up to 1 h. […]

The target in assay [18] is ZmADK3 (Zea mays, UniProt A0A1D6E5Z5). In words: ADK activity, coupled reaction with PK and LDH. The class given is biochemical. The settings on record: ZmADK3, 10 mM ATP, pH 7.5, 30 °C. As for the experimental part:
Substrate analogs were purchased from Sigma-Aldrich (www.sigmaaldrich.com). […] In this assay, PK converts ADP produced by ADK and phosphoenolpyruvate (PEP) to pyruvate. Subsequently, LDH then converts pyruvate to lactate using the coenzyme NADH, with the conversion monitored at 340 nm. The reaction was conducted in 50 mM Tris–HCl buffer at pH 7.5, containing 50 mM KCl, 6 mM MgCl2, 300 µM PEP, 200 µM NADH, 10 mM ATP, 2 U of PK, and 2.5 U of LDH, using various nucleoside substrates. Kinetic constants were determined using GraphPad Prism 8.0 software (www.graphpad.com). Each measurement was performed six times using repetitive purified enzymes. […] The reaction mixture comprised 50 mM Tris–HCl pH 7.5, 5 mM MgCl2, 0.5 mM DTT, 30 mM NaF, 5 mM ATP, 40 µM substrate, and 2–150 ng of purified ADK, depending on the isoform. The reaction was incubated at 30 °C for up to 1 h.

T1 sequence (B4FFH8 1-342 T4S): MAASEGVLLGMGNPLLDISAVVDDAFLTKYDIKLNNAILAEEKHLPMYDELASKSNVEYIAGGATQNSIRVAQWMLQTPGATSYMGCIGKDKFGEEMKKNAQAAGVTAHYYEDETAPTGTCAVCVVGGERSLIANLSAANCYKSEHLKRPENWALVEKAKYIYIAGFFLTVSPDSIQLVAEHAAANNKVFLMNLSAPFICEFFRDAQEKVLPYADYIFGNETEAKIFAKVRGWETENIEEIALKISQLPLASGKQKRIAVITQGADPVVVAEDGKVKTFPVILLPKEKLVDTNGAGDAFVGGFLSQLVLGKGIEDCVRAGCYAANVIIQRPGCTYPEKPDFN
Chain of ZmADK3 (A0A1D6E5Z5 entry or part of it): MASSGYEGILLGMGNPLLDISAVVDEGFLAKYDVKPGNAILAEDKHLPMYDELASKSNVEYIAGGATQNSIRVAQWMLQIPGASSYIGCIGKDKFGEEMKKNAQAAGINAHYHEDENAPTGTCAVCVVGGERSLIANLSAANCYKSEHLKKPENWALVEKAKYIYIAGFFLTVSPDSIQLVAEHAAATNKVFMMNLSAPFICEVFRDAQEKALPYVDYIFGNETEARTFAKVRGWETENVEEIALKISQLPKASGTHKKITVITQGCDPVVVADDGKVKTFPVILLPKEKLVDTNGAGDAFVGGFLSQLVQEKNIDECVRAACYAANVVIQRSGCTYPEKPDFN
Chain of ZmADK1 (K7UH13 entry or part of it): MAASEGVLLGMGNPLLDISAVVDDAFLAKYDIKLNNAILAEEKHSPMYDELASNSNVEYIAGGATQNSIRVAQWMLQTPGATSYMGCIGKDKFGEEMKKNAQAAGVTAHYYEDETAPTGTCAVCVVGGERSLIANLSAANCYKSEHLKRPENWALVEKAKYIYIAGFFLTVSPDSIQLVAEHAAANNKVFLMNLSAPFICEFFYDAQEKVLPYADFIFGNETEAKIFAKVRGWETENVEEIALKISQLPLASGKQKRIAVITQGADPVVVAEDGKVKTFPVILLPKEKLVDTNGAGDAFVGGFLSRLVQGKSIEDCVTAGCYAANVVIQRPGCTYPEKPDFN
Chain of PpADK2 (A9RF27 entry or part of it): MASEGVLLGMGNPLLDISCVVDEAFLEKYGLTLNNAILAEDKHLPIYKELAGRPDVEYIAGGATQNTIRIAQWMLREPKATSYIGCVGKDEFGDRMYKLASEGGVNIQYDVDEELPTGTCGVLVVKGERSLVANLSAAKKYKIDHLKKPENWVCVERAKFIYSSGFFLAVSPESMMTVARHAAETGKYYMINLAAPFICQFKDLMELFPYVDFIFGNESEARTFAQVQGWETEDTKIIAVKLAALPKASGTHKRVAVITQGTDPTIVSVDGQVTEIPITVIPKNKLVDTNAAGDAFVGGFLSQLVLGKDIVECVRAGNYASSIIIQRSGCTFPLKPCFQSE
T2 sequence (O49923 whole entry): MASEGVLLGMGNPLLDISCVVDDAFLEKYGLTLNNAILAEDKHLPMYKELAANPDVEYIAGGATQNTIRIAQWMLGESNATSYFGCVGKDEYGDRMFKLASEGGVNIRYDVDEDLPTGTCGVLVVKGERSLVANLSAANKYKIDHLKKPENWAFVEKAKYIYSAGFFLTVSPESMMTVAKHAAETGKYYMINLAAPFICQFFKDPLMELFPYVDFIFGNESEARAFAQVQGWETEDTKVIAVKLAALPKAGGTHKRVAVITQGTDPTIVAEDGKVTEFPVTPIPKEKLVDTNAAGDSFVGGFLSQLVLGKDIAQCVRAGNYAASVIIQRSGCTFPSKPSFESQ
Chain of ZmADK3 N222A variant (A0A1D6E5Z5 entry or part of it N222A): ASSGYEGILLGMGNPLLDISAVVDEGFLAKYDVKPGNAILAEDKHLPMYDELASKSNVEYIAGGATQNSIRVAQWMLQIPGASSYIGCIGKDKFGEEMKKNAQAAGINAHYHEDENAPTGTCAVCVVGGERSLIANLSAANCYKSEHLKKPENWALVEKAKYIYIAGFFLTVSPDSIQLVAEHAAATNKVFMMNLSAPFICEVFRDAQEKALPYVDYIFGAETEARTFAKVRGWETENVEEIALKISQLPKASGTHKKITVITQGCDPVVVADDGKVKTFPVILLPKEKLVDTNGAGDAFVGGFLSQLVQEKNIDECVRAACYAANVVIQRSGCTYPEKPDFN
Chain of ZmADK3 E225A variant (A0A1D6E5Z5 entry or part of it E225A): as the sequence (A0A1D6E5Z5 entry or part of it N222A) above, with A221N, E224A counted along it
Chain of WT ZmADK3 (A0A1D6E5Z5 2-344): as the sequence (A0A1D6E5Z5 entry or part of it N222A) above, with A221N counted along it
Chain of ZmADK3 D299A variant (A0A1D6E5Z5 entry or part of it D299A): as the sequence (A0A1D6E5Z5 entry or part of it N222A) above, with A221N, D298A counted along it
Chain of ZmADK3 N295A variant (A0A1D6E5Z5 entry or part of it N295A): as the sequence (A0A1D6E5Z5 entry or part of it N222A) above, with A221N, N294A counted along it
Chain of ZmADK3 D19A variant (A0A1D6E5Z5 entry or part of it D19A): as the sequence (A0A1D6E5Z5 entry or part of it N222A) above, with D18A, A221N counted along it
Chain of ZmADK3 R132A variant (A0A1D6E5Z5 entry or part of it R132A): as the sequence (A0A1D6E5Z5 entry or part of it N222A) above, with R131A, A221N counted along it

By Kd is commonly meant a measure of binding affinity in units of concentration. In general, Km refers to the concentration of substrate that gives half-maximal velocity. Take `Nc1ncnc2c1ncn2[C@@H]1O[C@H](COP(=O)(O)OP(=O)(O)OP(=O)(O)O)[C@@H](O)[C@H]1O` [ATP]: the Kd in assay [1] (read-out: KD) is 2.2 ± 0.62 mM; in assay [2] (E225A, MST, read-out: KD ATP), 16 ± 4.5 mM; in assay [3], 9.1 ± 2.1 mM; in assay [4] it was 4.9 ± 1.5 mM; in assay [5] (N222A, MST, read-out: KD ATP) it was 20.7 ± 4.4 mM; in assay [6], 41.8 ± 10 mM. The dissociation constant (Kd) amounted to 8.5 ± 2.1 mM in assay [7]; 2.9 ± 1.1 mM in [8]; 2.9 ± 0.7 mM in [9] (50 mM HEPES pH 7.5, 1 mM MgCl2, read-out: KD). Further, the “lower affinity for ATP compared with the WT” value in assay [2] (E225A variant of ZmADK3) is ~ 6 fold; in assay [5] (N222A variant of ZmADK3), 7 fold. Besides, the “stabilizing effect on melting temperature (Tm)” value in assay [10] is “up to 4 °C”. The Km in assay [11] is 300 to 400 µM.
Consider `CC(C)=CCNc1ncnc2c1ncn2C1OC(CO)C(O)C1O` (stereo not drawn) [iPR, N ^6-isopentenyl adenosine], for which the Kd came out at 0.0048 ± 0.0011 mM in assay [1] (KD) and 0.0055 mM in assay [9] (KD, 50 mM HEPES pH 7.5, 1 mM MgCl2, first or only binding event). The Km in assay [12] is 7 µM; in [14], 4 ± 0.3 µM; in assay [15], 8.5 ± 0.7 µM; in assay [17], 4 to 12 µM; in assay [18], 4.3 ± 0.4 µM. The “activity compared with Ado” value in assay [12] is on record as 69%. Also, the Specific activity in [13] is listed as 4.1±0.4 nmol s^–1 mg^–1; in assay [14] (100 µM substrate), 0.83±0.08 nmol s^–1 mg^–1; in [15] (100 µM substrate) it was 2.8±0.3 nmol s^–1 mg^–1; in assay [16] it was 0.93±0.11 nmol s^–1 mg^–1; in assay [18] (100 µM substrate), 5.1±0.3 nmol s^–1 mg^–1. In addition, the kcat is 0.19±0.01 s^–1 in [13], 0.03±0.001 s^–1 in assay [14], 0.10±0.002 s^–1 in assay [15] and 0.22±0.007 s^–1 in assay [18].
